Test results reported in paper PMC9516332 (Frontiers in Oncology, 2022).
Read-outs that look alike come from different tables or passages of the source.

Test system: 134 cancer cell lines
Assay: Cell viability assay (ATPlite, 72 hours), IC50 on cancer cell line panel

In the case of `COc1cc(N2CCC(N3CCN(C)CC3)CC2)ccc1Nc1ncc(Cl)c(Nc2ccccc2P(C)(C)=O)n1` [brigatinib], the IC50 (Homo sapiens, LoVo, read-out: IC50 in cell proliferation assay) is reported as 2020 nM, the IC50 (Homo sapiens, MCF7, read-out: IC50 in cell proliferation assay) is reported as 601 nM and the IC50 (Homo sapiens, MDA-MB-231, read-out: IC50 in cell proliferation assay) is reported as 2000 nM. The IC50 (Homo sapiens, MDA-MB-453, read-out: IC50 in cell proliferation assay) was 6650 nM, the IC50 (Homo sapiens, MDA-MB-468, read-out: IC50 in cell proliferation assay) was 2010 nM and the IC50 (Homo sapiens, MG-63, read-out: IC50 in cell proliferation assay) was 1050 nM. It also gave an IC50 (Homo sapiens, MIA PaCa-2, read-out: IC50 in cell proliferation assay) of 1190 nM, an IC50 (Homo sapiens, MKN-45, read-out: IC50 in cell proliferation assay) of 2640 nM and an IC50 (Homo sapiens, MOLM-13, read-out: IC50 in cell proliferation assay) of 58 nM. For the same compound, the IC50 (Homo sapiens, MOLT-4, read-out: IC50 in cell proliferation assay) was 1950 nM, the IC50 (Homo sapiens, MV4-11, read-out: IC50 in cell proliferation assay) was 33 nM and the IC50 (Homo sapiens, MeWo, read-out: IC50 in cell proliferation assay) was > 10000 nM. The IC50 (Homo sapiens, NCCIT, read-out: IC50 in cell proliferation assay) was 2680 nM, the IC50 (Homo sapiens, NCI-H82, read-out: IC50 in cell proliferation assay) was 1980 nM and the IC50 (Homo sapiens, NCI-H460, read-out: IC50 in cell proliferation assay) was 1380 nM. The IC50 (Homo sapiens, NCI-H661, read-out: IC50 in cell proliferation assay) was 402 nM, the IC50 (Homo sapiens, NCI-H716, read-out: IC50 in cell proliferation assay) was 201 nM and the IC50 (Homo sapiens, NCI-H1650, read-out: IC50 in cell proliferation assay) was 673 nM. It also gave an IC50 (Homo sapiens, NCI-H1975, read-out: IC50 in cell proliferation assay) of 449 nM, an IC50 (Homo sapiens, NCI-H2228, read-out: IC50 in cell proliferation assay) of 8 nM and an IC50 (Homo sapiens, OVCAR-3, read-out: IC50 in cell proliferation assay) of 939 nM. The IC50 (Homo sapiens, PFSK-1, read-out: IC50 in cell proliferation assay) was 592 nM, the IC50 (Homo sapiens, RL95-2, read-out: IC50 in cell proliferation assay) was 652 nM and the IC50 (Homo sapiens, RPMI-7951, read-out: IC50 in cell proliferation assay) was 1280 nM. For the same compound, the IC50 (Homo sapiens, RS4-11, read-out: IC50 in cell proliferation assay) was 473 nM, the IC50 (Homo sapiens, Rec1, read-out: IC50 in cell proliferation assay) was 1320 nM and the IC50 (Homo sapiens, SHP77, read-out: IC50 in cell proliferation assay) was 5190 nM. It also gave an IC50 (Homo sapiens, SK-BR-3, read-out: IC50 in cell proliferation assay) of 1360 nM, an IC50 (Homo sapiens, SK-N-AS, read-out: IC50 in cell proliferation assay) of 618 nM and an IC50 (Homo sapiens, SK-N-FI, read-out: IC50 in cell proliferation assay) of 1090 nM. It also gave an IC50 (Homo sapiens, SK-N-MC, read-out: IC50 in cell proliferation assay) of 401 nM, an IC50 (Homo sapiens, SK-N-SH, read-out: IC50 in cell proliferation assay) of 367 nM and an IC50 (Homo sapiens, SNU-5, read-out: IC50 in cell proliferation assay) of 2150 nM. It also gave an IC50 (Homo sapiens, SNU-16, read-out: IC50 in cell proliferation assay) of 376 nM, an IC50 (Homo sapiens, SNU-C2B, read-out: IC50 in cell proliferation assay) of 741 nM and an IC50 (Homo sapiens, SU-DHL-1, read-out: IC50 in cell proliferation assay) of 35 nM. The IC50 (Homo sapiens, SU-DHL-6, read-out: IC50 in cell proliferation assay) was 1340 nM, the IC50 (Homo sapiens, SUP-T1, read-out: IC50 in cell proliferation assay) was 1480 nM and the IC50 (Homo sapiens, SW48, read-out: IC50 in cell proliferation assay) was 713 nM. The IC50 (Homo sapiens, SW480, read-out: IC50 in cell proliferation assay) was 1090 nM, the IC50 (Homo sapiens, SW626, read-out: IC50 in cell proliferation assay) was 1300 nM and the IC50 (Homo sapiens, SW780, read-out: IC50 in cell proliferation assay) was 317 nM. It also gave an IC50 (Homo sapiens, SW837, read-out: IC50 in cell proliferation assay) of 663 nM, an IC50 (Homo sapiens, SW872, read-out: IC50 in cell proliferation assay) of 780 nM and an IC50 (Homo sapiens, SW900, read-out: IC50 in cell proliferation assay) of 537 nM. It also gave an IC50 (Homo sapiens, SW948, read-out: IC50 in cell proliferation assay) of 1440 nM, an IC50 (Homo sapiens, SW982, read-out: IC50 in cell proliferation assay) of 490 nM and an IC50 (Homo sapiens, SW-620, read-out: IC50 in cell proliferation assay) of 980 nM. For the same compound, the IC50 (Homo sapiens, T98G, read-out: IC50 in cell proliferation assay) was 1340 nM, the IC50 (Homo sapiens, TCC-SUP, read-out: IC50 in cell proliferation assay) was 1420 nM and the IC50 (Homo sapiens, THP-1, read-out: IC50 in cell proliferation assay) was 6380 nM. It also gave an IC50 (Homo sapiens, U2OS, read-out: IC50 in cell proliferation assay) of 1240 nM, an IC50 (Homo sapiens, U-87 MG, read-out: IC50 in cell proliferation assay) of 8530 nM and an IC50 (Homo sapiens, U-118-MG, read-out: IC50 in cell proliferation assay) of 1880 nM. It also gave an IC50 (Homo sapiens, UMUC3, read-out: IC50 in cell proliferation assay) of 1320 nM, an IC50 (Hs766T, read-out: IC50 in cell proliferation assay) of 2540 nM and an IC50 (L-82, read-out: IC50 in cell proliferation assay) of 6.37 nM. The IC50 (Rh30, read-out: IC50 in cell proliferation assay) was 464 nM.
